Values of other authors in patent US12502395B2, “Progestin/testosterone transdermal gel” (The Population Council, Inc., priority 2022, dated 2025).

Key:
[1] = tested on: androgenic, estrogenic, or glucocorticoid actions; conditions: at up to x2000 the therapeutic levels
[2] = most common adverse event; 100 mg/day of T
pregnancy = conditions: weekly intramuscular injection of 200 mg/week for 12 months

## C=C1C[C@H]2[C@@H]3CCC4=CC(=O)CC[C@@H]4[C@H]3CC[C@]2(C)[C@@]1(OC(C)=O)C(C)=O [NES, 16-methylene-17α-acetoxy-19-norpregn-4-ene-3,20-dione]
[1]
  Androgenic, estrogenic, or glucocorticoid actions: does not carry androgenic, estrogenic, or glucocorticoid actions

## C[C@]12CC[C@H]3[C@@H](CCC4=CC(=O)CC[C@@]43C)[C@@H]1CC[C@@H]2O [T, Testosterone]
[2]
  Acne, % of subjects: 21%

## CCCCCCC(=O)O[C@H]1CC[C@H]2[C@@H]3CCC4=CC(=O)CC[C@]4(C)[C@H]3CC[C@]12C [testosterone enanthate]
pregnancy
  Pregnancy rate: 0.8 pregnancy per 100 person-years of exposure
